Test results reported in article PMC8956313, “Biological investigation of N-methyl thiosemicarbazones as antimicrobial agents and bacterial carbonic anhydrases inhibitors” (Journal of Enzyme Inhibition and Medicinal Chemistry, 2022).

Key:
Experiment in all cases: stopped-flow CO2 hydrase assay
Type in all cases: biochemical
hCA I = biological target: T1, hCA I (Homo sapiens, UniProt P00915)
T1 construct: gene CA1; recombinant, obtained in house

HpαCA = biological target: T2, HpαCA (Helicobacter pylori, UniProt O25798); details: HEPES pH 7.40, 20 mM Na2SO4, 15 min preincubation, room temperature
T2 construct: gene HP_1186; recombinant, expressed in E. coli (DE3), purified
T2 sequence (O25798 19-202): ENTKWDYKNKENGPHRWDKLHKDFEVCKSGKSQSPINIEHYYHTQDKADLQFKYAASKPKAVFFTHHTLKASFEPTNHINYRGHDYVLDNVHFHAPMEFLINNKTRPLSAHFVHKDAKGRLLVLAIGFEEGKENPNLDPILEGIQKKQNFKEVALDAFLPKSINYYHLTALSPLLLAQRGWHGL

HpβCA = biological target: T3, HpβCA (Helicobacter pylori, UniProt O24855)
T3 construct: gene cynT; recombinant, expressed in E. coli (DE3), purified
T3 sequence (O24855 1-221): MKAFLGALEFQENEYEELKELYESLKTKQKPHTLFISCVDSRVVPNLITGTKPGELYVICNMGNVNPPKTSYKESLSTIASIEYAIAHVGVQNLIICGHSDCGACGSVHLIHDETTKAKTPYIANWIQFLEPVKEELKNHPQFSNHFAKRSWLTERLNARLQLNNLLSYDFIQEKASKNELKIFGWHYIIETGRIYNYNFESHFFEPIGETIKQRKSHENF

EcoγCA = biological target: T4, EcoγCA (Escherichia coli, UniProt P0A9W9)
T4 construct: gene yrdA; recombinant, expressed in E. coli (DE3), purified
T4 sequence (P0A9W9 1-184): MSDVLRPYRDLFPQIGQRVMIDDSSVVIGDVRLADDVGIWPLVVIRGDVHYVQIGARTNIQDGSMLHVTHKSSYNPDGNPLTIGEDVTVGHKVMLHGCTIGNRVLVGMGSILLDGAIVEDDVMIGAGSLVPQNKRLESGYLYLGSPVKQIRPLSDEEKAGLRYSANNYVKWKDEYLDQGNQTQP

hCA II = biological target: T5, hCA II (Homo sapiens, UniProt P00918)
T5 construct: gene CA2; recombinant, obtained in house

psCA3-β = biological target: T6, psCA3-β (Pseudomonas aeruginosa, UniProt Q9HVB9)
T6 construct: gene PA4676; recombinant, expressed in E. coli (DE3), purified
T6 sequence (Q9HVB9 1-215): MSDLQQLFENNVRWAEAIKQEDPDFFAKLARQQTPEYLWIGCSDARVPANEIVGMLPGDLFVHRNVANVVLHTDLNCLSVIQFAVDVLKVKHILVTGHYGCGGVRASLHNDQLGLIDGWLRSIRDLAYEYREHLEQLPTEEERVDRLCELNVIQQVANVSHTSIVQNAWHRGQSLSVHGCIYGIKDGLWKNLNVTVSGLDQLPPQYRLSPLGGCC

EcoβCA = biological target: T7, EcoβCA (Escherichia coli, UniProt P61517)
T7 construct: gene can; recombinant, expressed in E. coli (DE3), purified
T7 sequence (P61517 whole entry): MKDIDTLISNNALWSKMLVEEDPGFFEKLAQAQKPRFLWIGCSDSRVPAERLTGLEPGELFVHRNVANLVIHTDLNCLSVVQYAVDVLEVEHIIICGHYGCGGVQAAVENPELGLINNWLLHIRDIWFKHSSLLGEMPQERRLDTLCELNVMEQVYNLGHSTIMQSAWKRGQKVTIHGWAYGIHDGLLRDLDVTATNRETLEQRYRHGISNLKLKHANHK

T1 sequence (P00915 2-261): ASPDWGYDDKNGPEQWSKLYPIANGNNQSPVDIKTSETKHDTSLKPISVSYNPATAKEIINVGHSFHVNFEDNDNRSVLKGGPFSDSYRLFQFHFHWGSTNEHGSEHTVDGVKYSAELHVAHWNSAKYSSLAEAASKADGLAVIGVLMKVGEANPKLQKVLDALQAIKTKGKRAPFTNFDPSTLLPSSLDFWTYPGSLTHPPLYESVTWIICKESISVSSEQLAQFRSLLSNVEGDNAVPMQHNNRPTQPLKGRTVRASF

Ki (hCA I) [µM]	Structure (SMILES)	Ki (EcoγCA) [µM]	Ki (hCA II) [µM]	Ki (psCA3-β) [µM]	also measured
> 1000	CNC(=S)NN=C(C)c1ccc(-n2ccnc2)cc1 [compound 4, TSC 4]	–	–	–	–
–	CNC(=S)NN=C(C)c1ccc(-c2cc3ccccc3[nH]2)cc1 [compound 5, TSC 5]	–	–	–	Ki (HpαCA): 95.2 µM; Ki (HpβCA): 348 µM
–	CNC(=S)NN=C(C)c1ccc(S(C)(=O)=O)cc1 [compound 2, TSC 2]	80	> 800	93.4	–
–	CNC(=S)NN=C(C)c1ccc(OC)cc1 [compound 1, TSC 1]	86.2	> 800	92.1	–
–	CNC(=S)NN=C(C)c1ccc(Br)s1 [compound 9, TSC 9]	83.2	> 800	86.7	–
–	CNC(=S)NN=C(C)c1ccc(N2CCOCC2)cc1 [compound 3, TSC 3]	–	> 800	–	Ki (EcoβCA): 91.5 µM
> 1000	CNC(=S)NN=C(C)c1ccc2c(c1)OCO2 [compound 6, TSC 6]	–	–	–	–

Structure (SMILES)	Ki (hCA I) [µM]	Ki (EcoγCA) [µM]	Ki (hCA II) [µM]	Ki (psCA3-β) [µM]	also measured
CNC(=S)NN=C(C)c1ccc2c(c1)OCCO2 [compound 7, TSC 7]	> 1000	–	–	–	Ki (EcoβCA): 96.5 µM
